System: 282377-053-R-J1-PDC complex spheroid viability
Assay: Anticancer human tumor 282377-053-R-J1-PDC patient-derived colon adenocarcinoma cell line growth inhibition [RAS]
Details: for IC50: curve of first compound; for viability, T/C: stronger effect = lower value
Summary of the method: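 Agents were tested in combination matrices in half-log decrements from a top concentration at or near clinical Cmax (10 microM if undetermined). Targets were multi-cell spheroids of tumour lines plus HUVEC and MSC stromal cells.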

[1] = second compound 0.00316 µM, first compound 0.0316 µM
[2] = second compound 0.00316 µM, first compound 0.1 µM
[3] = second compound 0.00316 µM, first compound 0.316 µM
[4] = second compound 0.00316 µM, first compound 1 µM
[5] = second compound 0.00316 µM, first compound 3.16 µM
[6] = second compound 0.00316 µM, first compound 10 µM
[7] = second compound 0.01 µM, first compound 0.0316 µM
[8] = second compound 0.01 µM, first compound 0.1 µM
[9] = second compound 0.01 µM, first compound 0.316 µM
[10] = second compound 0.01 µM, first compound 1 µM
[11] = second compound 0.01 µM, first compound 3.16 µM
[12] = second compound 0.01 µM, first compound 10 µM
[13] = second compound 0.0316 µM, first compound 0.0316 µM
[14] = second compound 0.0316 µM, first compound 0.1 µM
[15] = second compound 0.0316 µM, first compound 0.316 µM
[16] = second compound 0.0316 µM, first compound 1 µM
[17] = second compound 0.0316 µM, first compound 3.16 µM
[18] = second compound 0.0316 µM, first compound 10 µM
[19] = second compound 0.1 µM, first compound 0.0316 µM
[20] = second compound 0.1 µM, first compound 0.1 µM
[21] = second compound 0.1 µM, first compound 0.316 µM
[22] = second compound 0.1 µM, first compound 1 µM
[23] = second compound 0.1 µM, first compound 3.16 µM
[24] = second compound 0.1 µM, first compound 10 µM
[25] = second compound 0.316 µM, first compound 0.0316 µM
[26] = second compound 0.316 µM, first compound 0.1 µM
[27] = second compound 0.316 µM, first compound 0.316 µM
[28] = second compound 0.316 µM, first compound 1 µM
[29] = second compound 0.316 µM, first compound 3.16 µM
[30] = second compound 0.316 µM, first compound 10 µM
[31] = second compound 1 µM, first compound 0.0316 µM
[32] = second compound 1 µM, first compound 0.1 µM
[33] = second compound 1 µM, first compound 0.316 µM
[34] = second compound 1 µM, first compound 1 µM
[35] = second compound 1 µM, first compound 3.16 µM
[36] = second compound 1 µM, first compound 10 µM
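Note: spheroids exposed to agents for seven days before readout.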
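Throughout, for viability, T/C: luminescence viability as percent of DMSO vehicle control wells.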

Molecule `CC(Nc1ccc2c(c1)OCCn1cc(N3C(=O)OCC3C(F)F)nc1-2)C(N)=O` (stereo unspecified) + C=CC(=O)N1CCN(c2nc(OCC3CCCN3C)nc3c(F)c(-c4nc(N)cc(C)c4C(F)(F)F)c(Cl)cc23)C(C)C1 has an IC50 (second compound 0.00316 µM) of over 10 µM, an IC50 (second compound 0.01 µM) of over 10 µM and an IC50 (second compound 0.0316 µM) of over 10 µM. The IC50 (second compound 0.1 µM) was over 10 µM, the IC50 (second compound 0.316 µM) was over 10 µM and the IC50 (second compound 1 µM) was over 10 µM. For the same molecule, the viability, T/C [1] was 100%, the viability, T/C [2] was 93.8% and the viability, T/C [3] was 94.3%. The viability, T/C [4] was 82.6%, the viability, T/C [5] was 78.9% and the viability, T/C [6] was 70.1%. For the same molecule, the viability, T/C [7] was 105%, the viability, T/C [8] was 89.1% and the viability, T/C [9] was 79.6%. For the same molecule, the viability, T/C [10] was 82.4%, the viability, T/C [11] was 89.9% and the viability, T/C [12] was 81.5%. It also gave a viability, T/C [13] of 91.1%, a viability, T/C [14] of 86.9% and a viability, T/C [15] of 87.1%. The viability, T/C [16] was 88.9%, the viability, T/C [17] was 77.6% and the viability, T/C [18] was 86.1%. For the same molecule, the viability, T/C [19] was 101%, the viability, T/C [20] was 94.1% and the viability, T/C [21] was 95.5%. The viability, T/C [22] was 82.2%, the viability, T/C [23] was 102% and the viability, T/C [24] was 76.7%. It also gave a viability, T/C [25] of 104%, a viability, T/C [26] of 92.8% and a viability, T/C [27] of 100%. For the same molecule, the viability, T/C [28] was 94.3%, the viability, T/C [29] was 78.2% and the viability, T/C [30] was 78.4%. It also gave a viability, T/C [31] of 105%, a viability, T/C [32] of 102% and a viability, T/C [33] of 92%. The viability, T/C [34] was 93.8%, the viability, T/C [35] was 76% and the viability, T/C [36] was 83.8%.
With `CCN1CCN(Cc2ccc(Nc3ncc(F)c(-c4cc(F)c5nc(C)n(C(C)C)c5c4)n3)nc2)CC1` + C=CC(=O)N1CCN(c2nc(OCC3CCCN3C)nc3c(F)c(-c4nc(N)cc(C)c4C(F)(F)F)c(Cl)cc23)C(C)C1 the IC50 (second compound 0.00316 µM) was over 1 µM, the IC50 (second compound 0.01 µM) was over 1 µM and the IC50 (second compound 0.0316 µM) was over 1 µM. For the same molecule, the IC50 (second compound 0.1 µM) was over 1 µM, the IC50 (second compound 0.316 µM) was over 1 µM and the IC50 (second compound 1 µM) was over 1 µM. The viability, T/C (second compound 0.00316 µM, first compound 0.00316 µM) was 114%, the viability, T/C (second compound 0.00316 µM, first compound 0.01 µM) was 106% and the viability, T/C [1] was 102%. For the same molecule, the viability, T/C [2] was 125%, the viability, T/C [3] was 131% and the viability, T/C [4] was 134%. It also gave a viability, T/C (second compound 0.01 µM, first compound 0.00316 µM) of 104%, a viability, T/C (second compound 0.01 µM, first compound 0.01 µM) of 106% and a viability, T/C [7] of 91.4%. For the same molecule, the viability, T/C [8] was 112%, the viability, T/C [9] was 146% and the viability, T/C [10] was 131%. It also gave a viability, T/C (second compound 0.0316 µM, first compound 0.00316 µM) of 117%, a viability, T/C (second compound 0.0316 µM, first compound 0.01 µM) of 87.1% and a viability, T/C [13] of 100%. The viability, T/C [14] was 121%, the viability, T/C [15] was 141% and the viability, T/C [16] was 132%. For the same molecule, the viability, T/C (second compound 0.1 µM, first compound 0.00316 µM) was 97.1%, the viability, T/C (second compound 0.1 µM, first compound 0.01 µM) was 108% and the viability, T/C [19] was 100%. For the same molecule, the viability, T/C [20] was 104%, the viability, T/C [21] was 106% and the viability, T/C [22] was 135%. It also gave a viability, T/C (second compound 0.316 µM, first compound 0.00316 µM) of 85.5%, a viability, T/C (second compound 0.316 µM, first compound 0.01 µM) of 115% and a viability, T/C [25] of 122%. The viability, T/C [26] was 99.8%, the viability, T/C [27] was 126% and the viability, T/C [28] was 126%. The viability, T/C (second compound 1 µM, first compound 0.00316 µM) was 109%, the viability, T/C (second compound 1 µM, first compound 0.01 µM) was 104% and the viability, T/C [31] was 121%. It also gave a viability, T/C [32] of 113%, a viability, T/C [33] of 138% and a viability, T/C [34] of 134%.
`C[C@@H](NC(=O)c1ncnc(N)c1Cl)c1ncc(C(=O)Nc2cc(C(F)(F)F)c(Cl)cn2)s1` + C=CC(=O)N1CCN(c2nc(OCC3CCCN3C)nc3c(F)c(-c4nc(N)cc(C)c4C(F)(F)F)c(Cl)cc23)C(C)C1 showed an IC50 (second compound 0.00316 µM) of over 10 µM, an IC50 (second compound 0.01 µM) of over 10 µM and an IC50 (second compound 0.0316 µM) of over 10 µM. It also gave an IC50 (second compound 0.1 µM) of over 10 µM, an IC50 (second compound 0.316 µM) of over 10 µM and an IC50 (second compound 1 µM) of over 10 µM. The viability, T/C [1] was 99%, the viability, T/C [2] was 101% and the viability, T/C [3] was 95.4%. It also gave a viability, T/C [4] of 88.4%, a viability, T/C [5] of 69.5% and a viability, T/C [6] of 66.1%. For the same molecule, the viability, T/C [7] was 84.1%, the viability, T/C [8] was 105% and the viability, T/C [9] was 98%. The viability, T/C [10] was 80.7%, the viability, T/C [11] was 82.2% and the viability, T/C [12] was 76.4%. For the same molecule, the viability, T/C [13] was 84.9%, the viability, T/C [14] was 78.4% and the viability, T/C [15] was 89.4%. It also gave a viability, T/C [16] of 84.7%, a viability, T/C [17] of 80.9% and a viability, T/C [18] of 57.6%. It also gave a viability, T/C [19] of 106%, a viability, T/C [20] of 98.7% and a viability, T/C [21] of 99.9%. For the same molecule, the viability, T/C [22] was 92.3%, the viability, T/C [23] was 66% and the viability, T/C [24] was 66.1%. The viability, T/C [25] was 92.5%, the viability, T/C [26] was 118% and the viability, T/C [27] was 98.1%. The viability, T/C [28] was 81.6%, the viability, T/C [29] was 78.2% and the viability, T/C [30] was 92.3%. It also gave a viability, T/C [31] of 104%, a viability, T/C [32] of 90.3% and a viability, T/C [33] of 122%. It also gave a viability, T/C [34] of 76.5%, a viability, T/C [35] of 85% and a viability, T/C [36] of 82.5%.
